The kinase profiling compilation of Christmann-Franck et al. (2016)
Blank lines part the entries; values can stand above or below the compound they belong to.

Legend:
Assay in all cases: radiometric filter-binding kinase assay, Kinase HotSpot
Conditions in all cases: compound 0.5 µM; ATP 10 µM
YES1 (human) = YES1 (human) (UniProt P07947)
OXSR1 (human) = OXSR1 (human) (UniProt O95747)
STK17A (human) = STK17A (human) (UniProt Q9UEE5)
NEK9 (human) = NEK9 (human) (UniProt Q8TD19)
SRPK2 (human) = SRPK2 (human) (UniProt P78362)
CSNK1G3 (human) = CSNK1G3 (human) (UniProt Q9Y6M4)
MAP2K2 (human) = MAP2K2 (human) (UniProt P36507)
CAMK1D (human) = CAMK1D (human) (UniProt Q8IU85)
NEK11 (human) = NEK11 (human) (UniProt Q8NG66)
PTK2 (human) = PTK2 (human) (UniProt Q05397)
HIPK4 (human) = HIPK4 (human) (UniProt Q8NE63)
STK25 (human) = STK25 (human) (UniProt O00506)
CDK4 CCND1 (human) = CDK4 CCND1 (human) (UniProt P24385+P11802)
MST1R (human) = MST1R (human) (UniProt Q04912)
PDGFRB (human) = PDGFRB (human) (UniProt P09619)
CSNK2A2 (human) = CSNK2A2 (human) (UniProt P19784)
PRKCA (human) = PRKCA (human) (UniProt P17252)
MAPK3 (human) = MAPK3 (human) (UniProt P27361)
RPS6KB2 (human) = RPS6KB2 (human) (UniProt Q9UBS0)
PRKCD (human) = PRKCD (human) (UniProt Q05655)
[1] = biological target: TYK2 JH1 catalytic (human) (UniProt P29597)
CAMKK1 (human) = CAMKK1 (human) (UniProt Q8N5S9)
CDK5 CDK5R1 p35 (human) = CDK5 CDK5R1 p35 (human) (UniProt Q00535+Q15078)
PKN1 (human) = PKN1 (human) (UniProt Q16512)
NLK (human) = NLK (human) (UniProt Q9UBE8)
EPHA2 (human) = EPHA2 (human) (UniProt P29317)
GSK3A (human) = GSK3A (human) (UniProt P49840)
DYRK3 (human) = DYRK3 (human) (UniProt O43781)
MAP3K10 (human) = MAP3K10 (human) (UniProt Q02779)
STK10 (human) = STK10 (human) (UniProt O94804)
PHKG1 (human) = PHKG1 (human) (UniProt Q16816)
TSSK1B (human) = TSSK1B (human) (UniProt Q9BXA7)
ULK2 (human) = ULK2 (human) (UniProt Q8IYT8)
ROCK2 (human) = ROCK2 (human) (UniProt O75116)
CSNK1D (human) = CSNK1D (human) (UniProt P48730)
TXK (human) = TXK (human) (UniProt P42681)
FGFR4 (human) = FGFR4 (human) (UniProt P22455)
SRMS (human) = SRMS (human) (UniProt Q9H3Y6)
MAPKAPK3 (human) = MAPKAPK3 (human) (UniProt Q16644)
MAPK1 (human) = MAPK1 (human) (UniProt P28482)
PRKD1 (human) = PRKD1 (human) (UniProt Q15139)
CAMK4 (human) = CAMK4 (human) (UniProt Q16566)

Sequence of OXSR1 (human) (O95747 whole entry, looked up): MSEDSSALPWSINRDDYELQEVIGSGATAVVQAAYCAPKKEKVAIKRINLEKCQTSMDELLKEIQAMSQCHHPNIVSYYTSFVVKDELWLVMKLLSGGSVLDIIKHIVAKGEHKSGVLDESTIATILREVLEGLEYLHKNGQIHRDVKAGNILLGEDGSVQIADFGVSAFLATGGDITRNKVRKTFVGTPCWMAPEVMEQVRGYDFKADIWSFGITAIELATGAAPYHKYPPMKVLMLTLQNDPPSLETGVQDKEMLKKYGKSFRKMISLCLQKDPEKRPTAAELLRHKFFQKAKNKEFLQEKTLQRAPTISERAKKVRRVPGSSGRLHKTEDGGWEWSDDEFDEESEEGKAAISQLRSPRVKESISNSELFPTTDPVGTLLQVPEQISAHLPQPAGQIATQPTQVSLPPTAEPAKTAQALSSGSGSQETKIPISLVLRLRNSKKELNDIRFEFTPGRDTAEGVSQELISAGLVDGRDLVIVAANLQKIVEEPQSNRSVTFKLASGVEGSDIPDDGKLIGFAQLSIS
Sequence of EPHA2 (human) (P29317 whole entry, looked up): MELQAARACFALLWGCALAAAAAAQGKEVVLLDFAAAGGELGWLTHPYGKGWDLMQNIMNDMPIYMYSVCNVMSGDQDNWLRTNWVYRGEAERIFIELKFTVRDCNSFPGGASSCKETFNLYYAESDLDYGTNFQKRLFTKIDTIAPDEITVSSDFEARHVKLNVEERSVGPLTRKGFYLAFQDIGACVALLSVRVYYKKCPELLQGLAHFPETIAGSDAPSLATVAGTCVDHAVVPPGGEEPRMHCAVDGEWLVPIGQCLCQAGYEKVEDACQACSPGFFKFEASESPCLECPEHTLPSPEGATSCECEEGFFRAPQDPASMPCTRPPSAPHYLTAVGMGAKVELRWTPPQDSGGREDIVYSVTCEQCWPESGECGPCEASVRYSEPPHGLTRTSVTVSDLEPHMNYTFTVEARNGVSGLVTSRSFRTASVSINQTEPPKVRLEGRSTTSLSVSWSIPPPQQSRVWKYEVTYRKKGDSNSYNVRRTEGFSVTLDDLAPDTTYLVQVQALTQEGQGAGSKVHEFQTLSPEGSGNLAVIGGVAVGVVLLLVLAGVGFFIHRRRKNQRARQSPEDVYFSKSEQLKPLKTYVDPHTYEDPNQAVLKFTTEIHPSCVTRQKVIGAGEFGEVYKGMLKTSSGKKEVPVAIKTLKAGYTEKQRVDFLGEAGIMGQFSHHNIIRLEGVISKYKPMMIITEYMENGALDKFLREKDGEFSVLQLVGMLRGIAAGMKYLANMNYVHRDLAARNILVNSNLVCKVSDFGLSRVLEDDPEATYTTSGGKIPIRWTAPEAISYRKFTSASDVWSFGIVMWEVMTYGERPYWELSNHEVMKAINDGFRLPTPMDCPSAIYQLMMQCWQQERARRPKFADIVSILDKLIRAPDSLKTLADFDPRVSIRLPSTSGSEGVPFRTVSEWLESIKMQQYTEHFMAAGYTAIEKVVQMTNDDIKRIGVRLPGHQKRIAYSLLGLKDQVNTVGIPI
Sequence of ROCK2 (human) (O75116 whole entry, looked up): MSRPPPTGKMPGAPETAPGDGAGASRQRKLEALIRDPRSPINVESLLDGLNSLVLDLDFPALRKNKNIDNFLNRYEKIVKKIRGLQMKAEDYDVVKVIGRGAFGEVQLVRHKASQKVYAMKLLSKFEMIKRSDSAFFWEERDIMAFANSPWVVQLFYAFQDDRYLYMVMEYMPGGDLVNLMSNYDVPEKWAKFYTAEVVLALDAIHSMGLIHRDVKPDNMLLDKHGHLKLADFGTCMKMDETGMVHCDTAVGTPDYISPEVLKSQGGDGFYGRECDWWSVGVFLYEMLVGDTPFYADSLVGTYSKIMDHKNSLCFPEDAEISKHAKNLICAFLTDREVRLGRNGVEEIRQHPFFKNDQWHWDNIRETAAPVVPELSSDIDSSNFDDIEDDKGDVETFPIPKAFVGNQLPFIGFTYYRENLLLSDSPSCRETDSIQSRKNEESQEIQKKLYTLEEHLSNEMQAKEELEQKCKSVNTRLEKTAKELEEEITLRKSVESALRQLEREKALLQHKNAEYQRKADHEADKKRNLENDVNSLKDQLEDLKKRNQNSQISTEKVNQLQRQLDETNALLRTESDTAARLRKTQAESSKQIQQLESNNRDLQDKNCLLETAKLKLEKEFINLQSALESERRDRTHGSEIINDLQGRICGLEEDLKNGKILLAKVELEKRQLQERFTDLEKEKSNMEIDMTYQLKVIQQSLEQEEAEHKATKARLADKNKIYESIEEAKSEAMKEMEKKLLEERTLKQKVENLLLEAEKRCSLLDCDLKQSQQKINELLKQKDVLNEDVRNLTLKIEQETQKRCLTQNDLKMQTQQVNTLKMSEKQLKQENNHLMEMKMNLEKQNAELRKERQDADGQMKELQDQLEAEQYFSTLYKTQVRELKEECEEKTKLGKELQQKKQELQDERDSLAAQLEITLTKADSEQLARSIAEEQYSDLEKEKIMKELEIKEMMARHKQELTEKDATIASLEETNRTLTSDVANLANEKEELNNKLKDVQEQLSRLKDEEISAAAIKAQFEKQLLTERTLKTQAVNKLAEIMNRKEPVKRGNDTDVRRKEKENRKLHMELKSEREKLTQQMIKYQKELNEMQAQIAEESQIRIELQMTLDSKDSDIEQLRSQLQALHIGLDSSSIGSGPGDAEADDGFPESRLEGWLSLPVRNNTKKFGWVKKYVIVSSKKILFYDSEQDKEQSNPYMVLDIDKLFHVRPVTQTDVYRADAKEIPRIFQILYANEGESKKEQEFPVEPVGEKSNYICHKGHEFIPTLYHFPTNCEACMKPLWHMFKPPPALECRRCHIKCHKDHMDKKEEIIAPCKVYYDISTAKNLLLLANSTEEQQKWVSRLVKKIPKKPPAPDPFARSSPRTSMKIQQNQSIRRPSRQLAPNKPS
Sequence of GSK3A (human) (P49840 whole entry, looked up): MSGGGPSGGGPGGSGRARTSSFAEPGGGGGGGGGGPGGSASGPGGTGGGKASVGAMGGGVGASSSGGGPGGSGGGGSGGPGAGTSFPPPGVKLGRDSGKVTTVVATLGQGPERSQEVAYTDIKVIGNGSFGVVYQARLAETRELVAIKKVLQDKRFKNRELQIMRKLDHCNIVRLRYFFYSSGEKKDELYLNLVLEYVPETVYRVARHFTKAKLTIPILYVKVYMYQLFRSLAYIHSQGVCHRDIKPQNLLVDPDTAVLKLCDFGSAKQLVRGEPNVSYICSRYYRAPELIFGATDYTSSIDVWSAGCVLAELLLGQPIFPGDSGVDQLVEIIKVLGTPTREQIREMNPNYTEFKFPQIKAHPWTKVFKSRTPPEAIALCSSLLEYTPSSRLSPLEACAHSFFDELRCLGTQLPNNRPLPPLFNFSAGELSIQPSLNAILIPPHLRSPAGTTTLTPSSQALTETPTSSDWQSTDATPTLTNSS
Sequence of CDK4 CCND1 (human) (P11802 whole entry, looked up): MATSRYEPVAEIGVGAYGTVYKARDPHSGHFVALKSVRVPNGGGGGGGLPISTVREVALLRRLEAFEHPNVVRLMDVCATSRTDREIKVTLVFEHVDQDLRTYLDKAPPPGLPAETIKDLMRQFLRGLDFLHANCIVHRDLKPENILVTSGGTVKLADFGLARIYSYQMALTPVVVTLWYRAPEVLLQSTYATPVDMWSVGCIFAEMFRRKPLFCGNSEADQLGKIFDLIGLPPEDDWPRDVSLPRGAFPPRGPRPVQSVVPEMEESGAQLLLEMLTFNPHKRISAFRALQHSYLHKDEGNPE
Sequence of CDK4 CCND1 (human) (P24385 whole entry, looked up): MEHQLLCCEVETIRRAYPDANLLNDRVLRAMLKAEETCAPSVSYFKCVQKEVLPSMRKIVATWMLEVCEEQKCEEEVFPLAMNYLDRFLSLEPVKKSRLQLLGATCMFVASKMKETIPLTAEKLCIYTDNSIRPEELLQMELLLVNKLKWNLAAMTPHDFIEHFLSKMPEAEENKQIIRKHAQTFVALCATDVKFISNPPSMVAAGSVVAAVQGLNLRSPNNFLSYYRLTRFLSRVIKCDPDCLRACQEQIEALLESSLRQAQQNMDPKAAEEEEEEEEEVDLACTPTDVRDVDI
Sequence of PTK2 (human) (Q05397 whole entry, looked up): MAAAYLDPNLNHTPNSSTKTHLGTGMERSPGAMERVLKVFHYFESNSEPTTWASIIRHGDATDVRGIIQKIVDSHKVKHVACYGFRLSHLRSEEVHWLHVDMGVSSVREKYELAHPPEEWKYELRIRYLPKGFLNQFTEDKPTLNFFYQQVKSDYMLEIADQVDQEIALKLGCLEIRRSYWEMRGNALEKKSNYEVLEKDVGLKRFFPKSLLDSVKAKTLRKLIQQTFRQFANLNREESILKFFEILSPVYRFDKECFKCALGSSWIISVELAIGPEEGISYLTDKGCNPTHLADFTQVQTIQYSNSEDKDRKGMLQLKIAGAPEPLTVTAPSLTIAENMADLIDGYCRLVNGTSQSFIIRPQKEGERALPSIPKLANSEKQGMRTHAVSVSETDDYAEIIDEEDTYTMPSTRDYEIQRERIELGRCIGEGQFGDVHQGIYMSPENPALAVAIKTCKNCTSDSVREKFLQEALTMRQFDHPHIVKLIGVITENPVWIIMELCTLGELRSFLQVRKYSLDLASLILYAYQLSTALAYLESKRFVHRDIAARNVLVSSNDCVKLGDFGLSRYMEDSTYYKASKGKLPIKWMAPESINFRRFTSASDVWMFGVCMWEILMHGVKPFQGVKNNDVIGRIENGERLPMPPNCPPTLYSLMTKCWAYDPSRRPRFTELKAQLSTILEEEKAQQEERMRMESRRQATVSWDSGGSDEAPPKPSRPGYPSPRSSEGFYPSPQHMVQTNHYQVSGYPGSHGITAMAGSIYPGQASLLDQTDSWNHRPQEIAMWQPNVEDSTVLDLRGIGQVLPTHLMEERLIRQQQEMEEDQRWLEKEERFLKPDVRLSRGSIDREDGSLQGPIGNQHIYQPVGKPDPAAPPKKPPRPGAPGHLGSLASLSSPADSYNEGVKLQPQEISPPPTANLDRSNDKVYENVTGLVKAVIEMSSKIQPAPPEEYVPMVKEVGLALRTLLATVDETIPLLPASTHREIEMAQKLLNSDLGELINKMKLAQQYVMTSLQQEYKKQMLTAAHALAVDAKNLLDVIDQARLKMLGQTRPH

SMILES: CCOc1cc2ncnc(Nc3cccc(Br)c3)c2cc1OCC
- residual activity (YES1 (human)): 43.2%
- residual activity (OXSR1 (human)): 102%
- residual activity (STK17A (human)): 98.9%
- residual activity (NEK9 (human)): 96.7%
- residual activity (SRPK2 (human)): 95.6%
- residual activity (CSNK1G3 (human)): 98.7%
- residual activity (MAP2K2 (human)): 95.5%
- residual activity (CAMK1D (human)): 102%
- residual activity (NEK11 (human)): 103%
- residual activity (PTK2 (human)): 101%
- residual activity (HIPK4 (human)): 89.9%
- residual activity (STK25 (human)): 90.1%
- residual activity (CDK4 CCND1 (human)): 94.2%
- residual activity (MST1R (human)): 102%
- residual activity (PDGFRB (human)): 94.8%
- residual activity (CSNK2A2 (human)): 93.8%
- residual activity (PRKCA (human)): 85.3%
- residual activity (MAPK3 (human)): 113%
- residual activity (RPS6KB2 (human)): 102%
- residual activity (PRKCD (human)): 100%
- residual activity [1]: 107%
- residual activity (CAMKK1 (human)): 88.2%
- residual activity (CDK5 CDK5R1 p35 (human)): 99.2%
- residual activity (PKN1 (human)): 100%
- residual activity (NLK (human)): 95.9%
- residual activity (EPHA2 (human)): 80.3%
- residual activity (GSK3A (human)): 110%
- residual activity (DYRK3 (human)): 98.5%
- residual activity (MAP3K10 (human)): 93.2%
- residual activity (STK10 (human)): 30.5%
- residual activity (PHKG1 (human)): 84.2%
- residual activity (TSSK1B (human)): 92.9%
- residual activity (ULK2 (human)): 82.8%
- residual activity (ROCK2 (human)): 91.8%
- residual activity (CSNK1D (human)): 103%
- residual activity (TXK (human)): 80.2%
- residual activity (FGFR4 (human)): 87.1%
- residual activity (SRMS (human)): 85.7%
- residual activity (MAPKAPK3 (human)): 87.4%
- residual activity (MAPK1 (human)): 104%
- residual activity (PRKD1 (human)): 95.4%
- residual activity (CAMK4 (human)): 98.7%

- residual activity (YES1 (human)): 89.1%
- residual activity (OXSR1 (human)): 99%
- residual activity (STK17A (human)): 94%
- residual activity (SRPK2 (human)): 97.1%
- residual activity (CSNK1G3 (human)): 87.1%
- residual activity (MAP2K2 (human)): 76.2%
- residual activity (CAMK1D (human)): 108%
- residual activity (NEK11 (human)): 118%
- residual activity (PTK2 (human)): 93%
- residual activity (HIPK4 (human)): 97.6%
- residual activity (STK25 (human)): 97.7%
- residual activity (CDK4 CCND1 (human)): 90.4%
- residual activity (MST1R (human)): 93.5%
- residual activity (PDGFRB (human)): 103%
- residual activity (CSNK2A2 (human)): 27.1%
- residual activity (PRKCA (human)): 94.3%
- residual activity (MAPK3 (human)): 99.4%
- residual activity (RPS6KB2 (human)): 96.5%
- residual activity (PRKCD (human)): 92.2%
- residual activity [1]: 83.2%
- residual activity (CAMKK1 (human)): 101%
- residual activity (CDK5 CDK5R1 p35 (human)): 97.2%
- residual activity (PKN1 (human)): 96.3%
- residual activity (NLK (human)): 94.9%
- residual activity (EPHA2 (human)): 103%
- residual activity (GSK3A (human)): 2.42%
- residual activity (DYRK3 (human)): 103%
- residual activity (MAP3K10 (human)): 79.6%
- residual activity (STK10 (human)): 86.3%
- residual activity (PHKG1 (human)): 89%
- residual activity (TSSK1B (human)): 99%
- residual activity (ULK2 (human)): 116%
- residual activity (ROCK2 (human)): 83.6%
- residual activity (CSNK1D (human)): 65%
- residual activity (TXK (human)): 49.3%
- residual activity (FGFR4 (human)): 101%
- residual activity (SRMS (human)): 106%
- residual activity (MAPKAPK3 (human)): 102%
- residual activity (MAPK1 (human)): 93.5%
- residual activity (PRKD1 (human)): 82.4%
- residual activity (CAMK4 (human)): 99%
SMILES: N#C/C(=C1/Nc2ccccc2S1)c1ccnc(NCCc2cccnc2)n1
- residual activity (NEK9 (human)): 94.4%

SMILES: O=C(c1ccccc1)c1ccc(N2CCOCC2)cc1O
- residual activity (YES1 (human)): 103%
- residual activity (OXSR1 (human)): 110%
- residual activity (STK17A (human)): 97.9%
- residual activity (NEK9 (human)): 103%
- residual activity (SRPK2 (human)): 102%
- residual activity (CSNK1G3 (human)): 98.8%
- residual activity (MAP2K2 (human)): 101%
- residual activity (CAMK1D (human)): 99.1%
- residual activity (NEK11 (human)): 97.7%
- residual activity (PTK2 (human)): 109%
- residual activity (HIPK4 (human)): 99.5%
- residual activity (STK25 (human)): 100%
- residual activity (CDK4 CCND1 (human)): 96.1%
- residual activity (MST1R (human)): 106%
- residual activity (PDGFRB (human)): 96.5%
- residual activity (CSNK2A2 (human)): 96.8%
- residual activity (PRKCA (human)): 84.2%
- residual activity (MAPK3 (human)): 102%
- residual activity (RPS6KB2 (human)): 100%
- residual activity (PRKCD (human)): 98.8%
- residual activity [1]: 110%
- residual activity (CAMKK1 (human)): 107%
- residual activity (CDK5 CDK5R1 p35 (human)): 97%
- residual activity (PKN1 (human)): 104%
- residual activity (NLK (human)): 97.3%
- residual activity (EPHA2 (human)): 104%
- residual activity (GSK3A (human)): 102%
- residual activity (DYRK3 (human)): 98.9%
- residual activity (MAP3K10 (human)): 100%
- residual activity (STK10 (human)): 97.9%
- residual activity (PHKG1 (human)): 97.4%
- residual activity (TSSK1B (human)): 107%
- residual activity (ULK2 (human)): 96.7%
- residual activity (ROCK2 (human)): 96%
- residual activity (CSNK1D (human)): 100%
- residual activity (TXK (human)): 98.5%
- residual activity (FGFR4 (human)): 106%
- residual activity (SRMS (human)): 93.9%
- residual activity (MAPKAPK3 (human)): 106%
- residual activity (MAPK1 (human)): 96.7%
- residual activity (PRKD1 (human)): 102%
- residual activity (CAMK4 (human)): 94.7%

SMILES: CCc1nc(-c2ccc(OC)cc2)[nH]c1-c1ccncc1
- residual activity (YES1 (human)): 95.1%
- residual activity (OXSR1 (human)): 97.7%
- residual activity (STK17A (human)): 96.1%
- residual activity (NEK9 (human)): 101%
- residual activity (SRPK2 (human)): 101%
- residual activity (CSNK1G3 (human)): 106%
- residual activity (MAP2K2 (human)): 105%
- residual activity (CAMK1D (human)): 104%
- residual activity (NEK11 (human)): 77.4%
- residual activity (PTK2 (human)): 101%
- residual activity (HIPK4 (human)): 90%
- residual activity (STK25 (human)): 116%
- residual activity (CDK4 CCND1 (human)): 107%
- residual activity (MST1R (human)): 101%
- residual activity (PDGFRB (human)): 105%
- residual activity (CSNK2A2 (human)): 95.3%
- residual activity (PRKCA (human)): 107%
- residual activity (MAPK3 (human)): 99.9%
- residual activity (RPS6KB2 (human)): 95.6%
- residual activity (PRKCD (human)): 98.5%
- residual activity [1]: 106%
- residual activity (CAMKK1 (human)): 122%
- residual activity (CDK5 CDK5R1 p35 (human)): 100%
- residual activity (PKN1 (human)): 97%
- residual activity (NLK (human)): 103%
- residual activity (EPHA2 (human)): 102%
- residual activity (GSK3A (human)): 99.1%
- residual activity (DYRK3 (human)): 95.5%
- residual activity (MAP3K10 (human)): 102%
- residual activity (STK10 (human)): 96.8%
- residual activity (PHKG1 (human)): 97%
- residual activity (TSSK1B (human)): 106%
- residual activity (ULK2 (human)): 98%
- residual activity (ROCK2 (human)): 101%
- residual activity (CSNK1D (human)): 95.1%
- residual activity (TXK (human)): 100%
- residual activity (FGFR4 (human)): 95.9%
- residual activity (SRMS (human)): 106%
- residual activity (MAPKAPK3 (human)): 102%
- residual activity (MAPK1 (human)): 97.2%
- residual activity (PRKD1 (human)): 100%
- residual activity (CAMK4 (human)): 97.5%
